Laboratory results published in PubChem BioAssay AID1996.
Converted amounts (≈) assume the structure as drawn.

Settings: buffer; pH 7.4; 200.0 µM

Row | Structure (SMILES) | solubility kinetic
1 | CC1CCC(NC(=O)C(Cc2ccccc2)n2cccc2)CC1 (stereo not given) | 19.2 µg/mL (≈ 61.8 µM)
2 | CCOc1ccc2nc(SCC(=O)NC3CC3)sc2c1 | 13.1 µg/mL (≈ 42.5 µM)
3 | O=C(CN1CCN(c2ccccn2)CC1)Nc1ccc(F)c(F)c1 | > 49.9 µg/mL
4 | Cc1nc([N+](=O)[O-])c(Br)n1Cc1ccccc1 | > 44.4 µg/mL
5 | NC(=O)c1cccc(C(N)=O)n1 | > 24.8 µg/mL
6 | COc1ccc(CCNC(=O)c2cc3cc(F)ccc3nc2C)cc1OC | 2.3 µg/mL (≈ 6.24 µM)
7 | N/C(=N\OC(=O)Nc1ccccc1)c1cccc(C(F)(F)F)c1 | 27.9 µg/mL (≈ 86.3 µM)
8 | Cc1cc(C(=O)Nc2ccc(C#N)cc2)on1 | 10.3 µg/mL (≈ 45.3 µM)
9 | COc1ccc(OC)c(CNC(=O)C2CCN(S(C)(=O)=O)CC2)c1 | > 53.5 µg/mL
10 | CC(C)N1CC(C(=O)Nc2ccc(C#N)cc2)CC1=O (stereo not given) | > 40.7 µg/mL
11 | Cc1ccc(-c2c[n+](CC(=O)Nc3ccc(C)cc3C)c3n2CCC3)cc1.[Cl-] | > 59.4 µg/mL
12 | CN(C)C(CNC(=O)c1ccc(Br)cc1)c1ccco1 (stereo not given) | 30.4 µg/mL (≈ 90.1 µM)
13 | Cc1cc2nc(Cl)c(Cl)nc2cc1C | 0.6 µg/mL (≈ 2.64 µM)
14 | COC(=O)c1sccc1NC(=O)COc1cccc(C)c1 | < 0.7 µg/mL
15 | CN(C)C(=O)c1cnc(-c2ccccc2)nc1-c1ccccc1 | > 45.5 µg/mL
16 | Cc1ccc(SCC(=O)NCc2ccccc2)cc1 | > 40.7 µg/mL
17 | Cc1cccc(-n2c(C)nc3ccc(Cl)cc3c2=O)c1 | 22.1 µg/mL (≈ 77.6 µM)
18 | CC(=O)C1=C(C)NC(=O)CC1c1ccc(F)cc1 (stereo not given) | > 37.1 µg/mL
19 | O=C(NCCc1c[nH]c2ccccc12)C(=O)c1c[nH]c2ccccc12 | 4.2 µg/mL (≈ 12.7 µM)
20 | Cc1cccc2cc(C#N)c(N3CCOCC3)nc12 | 1.7 µg/mL (≈ 6.71 µM)

Row | Structure (SMILES) | solubility kinetic
21 | C/C(=C\C(=O)Nc1cscc1C)C(=O)O | 28.2 µg/mL (≈ 125 µM)
22 | COCCCNC(=S)N(Cc1ccccc1)Cc1ccc(F)cc1 | 22.1 µg/mL (≈ 63.8 µM)
23 | Cc1ccc(NC(=O)CCc2ccc(C)o2)c(Br)c1 | 4.2 µg/mL (≈ 13 µM)
24 | Cc1ccc(C(=O)NCC(=O)NC2CC2)cc1 | 33.4 µg/mL (≈ 144 µM)
25 | O=[N+]([O-])c1ccc(N2CCCCC2)nc1 | 29.2 µg/mL (≈ 141 µM)
26 | CN1CCCN(C(=O)c2ccc(Cl)s2)CC1 | > 38.8 µg/mL
27 | CN1C(=O)C(O)N=C(c2ccccc2)c2ccccc21 (stereo not given) | > 39.9 µg/mL
28 | Cc1onc(-c2ccccc2)c1C(=O)NCCSCc1ccco1 | > 51.4 µg/mL
29 | CC(C)(C)C(=O)CN1C(=O)NC2(CCCc3ccccc32)C1=O (stereo not given) | > 47.2 µg/mL
30 | Cc1cccc(NC(=O)CSc2cccc3cccnc23)c1C | 3.7 µg/mL (≈ 11.5 µM)
31 | Nc1nc(NCC2CCCO2)nc(Nc2ccccc2F)c1[N+](=O)[O-] (stereo not given) | 0.6 µg/mL (≈ 1.72 µM)
32 | Cn1c(N)c(N=O)c(=O)n(C)c1=O | > 27.6 µg/mL
33 | Cc1cnc(=O)[nH]c1SCc1cccc([N+](=O)[O-])c1 | 5.6 µg/mL (≈ 20.2 µM)
34 | COc1ccc(CCNc2ncnc3c2c(C)c(C)n3CCO)cc1OC | 53.8 µg/mL (≈ 145 µM)
35 | CCOc1ccc(-c2ncncc2-c2ccc(OC)c(OC)c2)c(O)c1 | 3.6 µg/mL (≈ 10.2 µM)
36 | CCC(Sc1nc(C)cc(C)n1)C(=O)Nc1nccs1 (stereo not given) | 43.1 µg/mL (≈ 140 µM)
37 | CCOc1ccc(C(CC(=O)O)NC(=O)Cc2ccc(Cl)cc2)cc1 (stereo not given) | > 54.3 µg/mL
38 | CN(C)/C=C/C(=O)c1ccc(OCCN(C)c2ccccn2)cc1 | > 48.8 µg/mL
39 | CC(=O)c1cc(F)ccc1OCC(=O)Nc1ccc2c(c1)OCO2 | 7.8 µg/mL (≈ 23.5 µM)
40 | C=CC(C)C(C(=O)c1ccccc1)N(C)C (stereo not given) | 12 µg/mL (≈ 55.2 µM)

Row | Structure (SMILES) | solubility kinetic
41 | O=C(CCc1ccccc1)Nc1cc2c(cc1C(=O)O)OCCCO2 | > 51.2 µg/mL
42 | CCNC(=O)C(CCSC)NS(=O)(=O)c1ccc(C)cc1 (stereo not given) | > 49.6 µg/mL
43 | O=C(CNC(=O)c1ccco1)OCC(=O)c1ccc([N+](=O)[O-])cc1 | > 49.8 µg/mL
44 | O=C(O)c1ccc(NC(=O)C(c2ccccc2)c2ccccc2)cc1 | > 49.7 µg/mL
45 | Cc1[nH]c(=O)[nH]c(=O)c1NC(=O)c1ccc(OC(C)C)cc1 | > 45.5 µg/mL
46 | COc1cc(C2C(C#N)=C(N)Oc3cc(C)oc(=O)c32)cc(OC)c1OC (stereo not given) | > 55.6 µg/mL
47 | O=C(CNC(=O)c1ccco1)NCC(=O)OCc1ccccc1Cl | 42.5 µg/mL (≈ 121 µM)
48 | CCOc1cccc(C(=O)Nc2ccncc2)c1 | > 36.3 µg/mL
49 | O=C(c1ccco1)c1cn(CC(=O)N2CCCC2)c2ccccc12 | > 48.4 µg/mL
50 | CN1CCN(c2ccccc2/C=C2/C(=O)Nc3ccccc32)CC1 | > 47.9 µg/mL
51 | CCCCNC(=S)N1CCn2cccc2C1c1ccccc1 (stereo not given) | 5.5 µg/mL (≈ 17.5 µM)
52 | Cc1ccccc1OCCCN1CCOCC1 | 31.3 µg/mL (≈ 133 µM)
53 | O=C(CSc1ccccn1)Nc1ccc2[nH]c(=O)[nH]c2c1 | > 45.1 µg/mL
54 | O=C(Cn1c(=O)[nH]c2ccccc2c1=O)Nc1cccnc1 | > 44.4 µg/mL
55 | CCOC(=O)C1CCN(C(=O)COC(=O)C23CC4CC(CC(C4)C2)C3)CC1 | 50.7 µg/mL (≈ 134 µM)
56 | COC(=O)c1ccc(C2SCC(=O)N2Cc2ccccc2)cc1 (stereo not given) | 37.3 µg/mL (≈ 114 µM)
57 | O=C(Nc1nncs1)c1cc(-c2ccco2)nc2ccccc12 | > 48.4 µg/mL
58 | S=C(Nc1ccccn1)Nc1ccccc1Cl | 2.1 µg/mL (≈ 7.96 µM)
59 | O=C(c1ccccc1)c1ccc(OCC(=O)N2CCOCC2)cc1 | > 48.8 µg/mL
60 | CCOC(=O)COc1cc2oc(=O)cc(C)c2cc1[N+](=O)[O-] | 3 µg/mL (≈ 9.76 µM)
